The test system of one assay is Panc02 cell spheroids. The assay is described as follows: MTT cytotoxicity assay, Panc02 cell spheroids culture. It counts as cell-based, murine. The method, then:
(§1) The cytotoxic effect of the chemotherapeutic drug Gemcitabine (LC Laboratories, Woburn, Mass., USA) on Panc02 cell spheroids culture was compared to the cytotoxic effect on monolayer culture. For the cytotoxic assay, 1×10^4 cells suspended in complete medium were seeded in each well of a 96-well plate. Four (4)-day-old Panc02 spheroids were transferred to a new 96 ultra-low attachment well plate. The next day, the cells and spheroids were treated with different concentrations of Gemcitabine solution (0, 0.1, 1, 10, 25, 50, 100 μM) in sextuplicate wells. After incubating the cells with Gemcitabine for 48 h, 20 microliter (μl) of 3-(4,5-dimethylthiazol-2-yl)-2,5-diphenyltetrazolium bromide (MTT) solution (5 mg/ml) was added into each well, and the cells were incubated for 4 hours. […] Finally, absorbance was recorded at 570 nm using the Epoch™ microplate spectrophotometer (Bio-Tek Instruments, USA). […]
(§2) Parallel experiments were set with traditional 2D monolayer cell cultures to examine differential response of 2D and 3D cell cultures. Cell number and viability were measured using MTT assay after 2 days of Gemcitabine treatment. The IC50 value was calculated. […]
(In general: Tetrazolium dyes change colour on reduction, which living cells bring about.)

The test system of a further assay is Panc02 cells. The assay is described as follows: MTT cytotoxicity assay, Panc02 monolayer culture. The assay is classed as cell-based, murine. The method, then:
as §1, §2

As for `Nc1ccn([C@@H]2O[C@H](CO)[C@@H](O)C2(F)F)c(=O)n1` [Gemcitabine], the “response to the drug from regression curves, spheroids” value in the assay with Panc02 cell spheroids (0-100 μM Gemcitabine, 48 h) is “dose-dependent response”. Further, the IC50 (in general, the concentration needed to halve the response being measured) in the assay with Panc02 cell spheroids (Mus musculus, 4-day-old acoustically assembled Panc02 3D spheroids, 48 h (2 days) Gemcitabine treatment) was 18.38 ± 0.09 µM; with Panc02 cells (Mus musculus, Panc02, 2D monolayer culture, 48 h (2 days) Gemcitabine treatment) it was 9.99 ± 0.07 µM. In the assay on Panc02 cells (0-100 μM Gemcitabine, 48 h), the “response to the drug from regression curves, monolayer” value was “dose-dependent response”.

Source of the values: patent US12590277B2, “High-throughput acoustofluidic fabrication of cell spheroids” (The Trustees of Indiana University, priority 2019, dated 2026).
